Where two headings read alike, the source gives them in different places.

For one series, the target named is PLpro (Severe acute respiratory syndrome coronavirus 2, UniProt P0DTC1). Briefly: nanoDSF fluorescence titration (quenching of PLpro fluorescence). The series is classed as binding, SARS-CoV-2. (In general: In DSF a fluorescence change marks the thermal transition of the protein.)
Series [1] addresses T1, SARS-CoV-2 PLpro (Severe acute respiratory syndrome coronavirus 2, UniProt P0DTC1). Briefly: biochemical. Conditions: for inhibition at 50 µM: compound at 50 µM, 10 nM PLpro, ISG15-Rhodamine 100 nM, preincubation 6 h at 10 °C, read-out: % Inhibition of PLpro deISGylation activity.
The target in series [2] is T1, SARS-CoV-2 PLpro. Format: biochemical. To be noted: compound at 50 µM, compared with ISG15-Rhodamine substrate.
In series [3] the test system is SARS-CoV-2. As to the kind of experiment: microbe, parasite or virus in culture. Format: cell-based. Conditions: Vero cells, MOI 0.01, 42 h, CellTiter-Glo; for IC50: read-out: IC50 CPE inhibition.
For series [4], the system named is SARS-CoV-2. As to the kind of experiment: Antiviral activity assay in Vero cells, viral RNA by qRT-PCR. Format: cell-based. Conditions: Severe acute respiratory syndrome coronavirus 2, MOI 0.01, qRT-PCR, 42 h post-infection, read-out: IC50 Antiviral cell assay (reduction of viral RNA replication). (In general: In qPCR the cycle at which signal appears reflects the starting amount.)

In series [5] the test system is Vero cell lines (ATCC CCL-81).
The target in series [6] is SARS-CoV-2 main protease (Mpro) (Severe acute respiratory syndrome coronavirus 2, UniProt P0DTC1). Briefly: FRET-based Mpro inhibition assay. Format: biochemical. Conditions: substrate 2-AbzSAVLQSGTyr(3-NO2)R-OH, incubated with Mpro for 30 minutes. The protocol:
Activity assays were performed for SARS-CoV-2 Mpro[16],[71] utilizing the three natural compounds, aiming to characterize the specificity of the compounds towards PLpro. The assays were performed applying a total reaction volume of 50 µL using non-binding, black bottom, 96-well plates and the relative fluorescence was measured utilizing a Tecan Infinite M plus plate reader (Tecan Group Ltd, Switzerland) using optical settings specific for the substrate 2-Abz[…]yr(3-NO2)R-OH (Biotrend). The corresponding fluorophore has an excitation and emission at 355 nm and 460 nm wavelength respectively. The substrate and Mpro were used at a final concentration of 5 µM and 75 nM respectively. The known Mpro inhibitor (GC-376) was used as positive control throughout the assay. SARS-CoV-2 Mpro and substrates were diluted in assay buffer (20 mM Tris-HCl pH 7.3, 150 mM NaCl, 1 mM EDTA, 1 mM DTT) and reactions were initiated upon addition of Mpro in a final volume of 50 µL and were measured at 25 °C. The three compounds were incubated prior to the experiments with Mpro at 10 °C for 6 h, as accomplished also for the PLpro activity assays. Fluorescence values were measured for 15 min with one read out per minute. […]
311 with Mpro for 6h at 10 °C and fluorescence was measured for 15 min with read - […]
318 were incubated with the Mpro for 30 minutes. The IC50 values were calculated by […]

The Kd is the constant that tells how readily two partners part at equilibrium. As a reminder, the IC50 is the concentration at which inhibition is half-maximal. For orientation: inhibition means how much of the control response was suppressed. `O=Cc1ccc(O)cc1` [HBA, 4-hydroxybenzaldehyde] returned a Kd at PLpro of roughly 400 µM. On SARS-CoV-2 PLpro [1], the IC50 amounted to 3.99 ± 1.33 µM and the inhibition at 50 µM is roughly 73%. For the same molecule, the “inhibition of PLpro with Ub-Rhodamine as substrate” value against SARS-CoV-2 PLpro [2] is given as “not as pronounced”. The “IC50 CPE inhibition” value in the series on SARS-CoV-2 [3] was “unable to fit a sigmoidal curve”.

With `COC(=O)c1ccc(O)c(O)c1` [HE9, methyl 3,4-dihydroxybenzoate], the Kd on PLpro (nanoDSF fluorescence titration, 50 μM PLpro, 0.5% DMSO, depending on the emission wavelength used (330/350 nm), read-out: Kd) was 1000 µM. The IC50 with SARS-CoV-2 [4] is 0.13 µM; in the series on SARS-CoV-2 [3] (Severe acute respiratory syndrome coronavirus 2, Vero, 42 h), 10.4 µM; in the series on SARS-CoV-2 [3], 10 µM. Further, the “cell toxicity at 100 µM” value in series [5] is reported as “no associated cell toxicity”.

As for `OCCc1ccc(O)cc1` [YRL, 4-(2-hydroxyethyl)phenol], the IC50 is 6.68 ± 1.2 µM against SARS-CoV-2 PLpro [1] and 1 µM in the series on SARS-CoV-2 [4]. For the same molecule, the inhibition at 50 µM on SARS-CoV-2 PLpro [1] was roughly 70%. The “inhibition of PLpro with Ub-Rhodamine as substrate” value against SARS-CoV-2 PLpro [2] was “not as pronounced”. Also, the “IC50 CPE inhibition” value in the series on SARS-CoV-2 [3] was “unable to fit a sigmoidal curve”. In addition, the “cell toxicity at 100 µM” value in series [5] was “no associated cell toxicity”.

The molecule `CC(C)C[C@H](NC(=O)OCc1ccccc1)C(=O)N[C@@H](CC1CCNC1=O)C(O)S(=O)(=O)O` (some centres unmarked) [GC-376] had an IC50 in series [6] of 1.1 µM.
